This is an account of results in patent US7608281B2, “Composition and use of RAR antagonists for promoting chondrogenesis” (T. Michael Underhill, priority 1999, dated 2009).

“Also recorded” adds a separate entry of the source.

Assay [1] relates to wild-type limb mesenchyme micromass cultures. Kind of assay: Cartilage nodule formation in wild-type limb bud micromass cultures (alcian blue staining). It is filed as cell-based, murine. On the procedure:
Micromass cultures were prepared from murine E11.25 to E11.75 fore and hind limb buds as previously described with the following modifications (Cash et al. (1997) J. Cell Biol. 136, 445-457). After proteolytic digestion cells were filtered through a Cell Sieve ([…], Falcon) to obtain a single cell suspension. Culture media (40% Dulbecco's modified Eagle's medium, 60% F12 was supplemented with fetal bovine serum to 10%, Gibco-BRL) was changed daily. […] Addition/removal experiments included either adding or removing supplemented media on the indicated culture day, 24 hours after culture initiation was considered day 1. To detect transgene-expressing cells, cultures were fixed stained as previously described, with magenta-gal (BioSynth International Inc.) being substituted for X-gal. This was followed by alcian blue staining for cartilage-specific glycosaminoglycans. Alcian blue staining of magenta-gal stained cultures turned the red precipitate to a purple color, this is a result of incubating magenta-gal stained cells at pH 1. This double-staining technique enables transgene-expressing cells to be localized with respect to alcian blue stained cartilage nodules.

The next assay deals with T1, RARβ (Homo sapiens, UniProt P10826).
T1 construct: expressed in transfected cells; host or cells: P19 embryonal carcinoma cells
T1 sequence (P10826 1-455): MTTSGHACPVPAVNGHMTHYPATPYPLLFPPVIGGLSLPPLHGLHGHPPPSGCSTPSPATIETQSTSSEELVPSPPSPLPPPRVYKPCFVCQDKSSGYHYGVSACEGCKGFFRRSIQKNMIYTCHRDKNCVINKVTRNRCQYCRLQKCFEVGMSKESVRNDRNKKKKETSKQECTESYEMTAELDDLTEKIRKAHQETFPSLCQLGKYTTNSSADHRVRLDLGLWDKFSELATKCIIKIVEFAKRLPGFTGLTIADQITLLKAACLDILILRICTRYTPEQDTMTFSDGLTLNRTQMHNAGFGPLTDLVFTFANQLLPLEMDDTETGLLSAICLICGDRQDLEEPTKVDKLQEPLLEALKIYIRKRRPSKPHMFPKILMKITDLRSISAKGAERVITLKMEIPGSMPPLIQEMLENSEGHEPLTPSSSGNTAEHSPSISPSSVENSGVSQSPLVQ
Kind of assay: Transient transfection: inhibition of all-trans RA induction of RARE luciferase construct in P19 cells, RARβ. The following applies: 1 μM AGN194301, 100 nM all-trans RA. The format is cell-based. On the procedure:
(§1) The ability of AGN194301 to inhibit all-trans RA induction of an RARE containing luciferase construct was performed in P19 embryonal carcinoma cells as previously described with some modification (Underhill et al. (1994) Mol. Endo. 8, 274-285). P19 cells were seeded at a density of 1.5×10^4 cells/well in 6 well plates. […] Following transfection cells were washed and fresh media was added that contained 1×10^−7 M all-trans RA and various amounts of AGN194301. Twenty-four hours later cell extracts were prepared, and luciferase and β-galactosidase activity measured. Luciferase activity was normalized with β-galactosidase activity to control for differences in transfection efficiency.
(§2) RAR activity as used herein refers to the level of RA-induced transcriptional activity of the RARs. Micromass cultures were treated with the RARα-specific antagonist AGN194301 to examine whether inhibition of RARα activity stimulated cartilage formation. Addition of 1 μM AGN194301 to wild-type micromass cultures lead to a dramatic increase in nodule number with no apparent increase in nodule size as compared to untreated control cultures (FIG. 5G, J, M). […] To confirm that the concentrations utilized in these experiments inhibited RARα activity specifically, the level of RARα, RARβ and RARγ mediated RARE activation was measured with 100 nM all-trans RA in the presence of various concentrations of antagonist. […]

For the next assay, the target named is T2, RARγ (Homo sapiens, UniProt P13631).
T2 construct: expressed in transfected cells; host or cells: P19 embryonal carcinoma cells
T2 sequence (P13631 1-454): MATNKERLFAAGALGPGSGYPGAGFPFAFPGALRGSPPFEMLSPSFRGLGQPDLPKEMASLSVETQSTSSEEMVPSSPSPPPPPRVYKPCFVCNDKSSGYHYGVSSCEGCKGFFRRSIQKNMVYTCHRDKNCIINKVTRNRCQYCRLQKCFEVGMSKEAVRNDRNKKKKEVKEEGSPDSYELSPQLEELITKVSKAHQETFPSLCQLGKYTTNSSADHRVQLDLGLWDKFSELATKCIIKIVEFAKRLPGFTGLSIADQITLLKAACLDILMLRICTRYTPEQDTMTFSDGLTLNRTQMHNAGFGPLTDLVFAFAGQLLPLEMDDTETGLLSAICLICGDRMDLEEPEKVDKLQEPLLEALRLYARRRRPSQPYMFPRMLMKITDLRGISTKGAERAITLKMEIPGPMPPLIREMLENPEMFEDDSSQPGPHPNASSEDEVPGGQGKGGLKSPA
Kind of assay: Transient transfection: inhibition of all-trans RA induction of RARE luciferase construct in P19 cells, RARγ. The following applies: 1 μM AGN194301, 100 nM all-trans RA. The format is cell-based. On the procedure:
as §1, §2

For a further assay, the target named is T3, RARα (Homo sapiens, UniProt P10276).
T3 construct: expressed in transfected cells; host or cells: P19 embryonal carcinoma cells
T3 sequence (P10276 1-462): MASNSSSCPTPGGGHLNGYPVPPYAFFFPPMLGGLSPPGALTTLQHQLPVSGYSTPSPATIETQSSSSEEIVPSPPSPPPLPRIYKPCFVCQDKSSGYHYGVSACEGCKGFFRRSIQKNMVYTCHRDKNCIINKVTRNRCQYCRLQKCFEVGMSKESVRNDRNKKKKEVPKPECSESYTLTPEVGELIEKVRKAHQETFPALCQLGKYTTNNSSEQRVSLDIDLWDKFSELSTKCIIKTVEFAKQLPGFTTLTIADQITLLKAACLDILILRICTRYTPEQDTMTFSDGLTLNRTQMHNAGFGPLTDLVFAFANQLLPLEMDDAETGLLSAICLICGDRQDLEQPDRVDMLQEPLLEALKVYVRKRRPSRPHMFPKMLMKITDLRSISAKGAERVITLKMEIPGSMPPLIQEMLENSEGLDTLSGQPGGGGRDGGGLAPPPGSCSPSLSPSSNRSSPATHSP
The assay can be described thus: Transient transfection: inhibition of all-trans RA induction of RARE luciferase construct in P19 cells, RARα. It is filed as cell-based. The following applies: 1 μM AGN194301, 100 nM all-trans RA. On the procedure:
as §1, §2

Consider `Cc1ccc(C2=CC(C)(C)Oc3c(Br)cc(C(=O)Nc4ccc(C(=O)O)c(F)c4)cc32)cc1` [AGN194301, 2-Fluoro-4-[(1-(8-bromo-2,2-dimethyl-4-(4-methylphenyl)-2-H-chromen-6-yl)-methanoyl)-amino]-benzoic acid], for which, in assay [1] (1 μM AGN194301 + 10 ng/ml Noggin, day 6), the “rescue of cartilage nodule formation in Noggin-treated cultures” value is “resembled untreated cultures; also recorded: comparable to that of control cultures”. Besides, the “increase in number of cartilage nodules (more nodules than untreated cultures)” value in assay [1] (1 μM AGN194301, 8 days in culture, wild-type cultures, FIG. 5M) worked out at 60%. The “RARβ signaling (RARE activation) remaining” value on RARβ is given as ~18 % of controls. The “RARγ signaling (RARE activation) remaining” value on RARγ is listed as ~26 % of controls. The “RARα signaling (RARE activation) remaining” value at RARα is reported as ~0.3 % of controls.

B1: Noggin: purified Xenopus noggin protein, secreted inhibitor of BMP-2 and -4 (protein, UniProt P49011 20-222, looked up)
Noggin: RIDQGGCQHYLHIRPAPSENLPLVDLIEHPDPIYDPKEKDLNETLLRTLMVGHFDPNFMATILPEERLGVEDLGELDLLLRQKPSGAMPAEIKGLEFYEGLQSKKHRLSKKLRRKLQMWLWSQTFCPVLYTWNDLGTRFWPRYVKVGSCYSKRSCSVPEGMVCKAAKSMHLTILRWRCQRRVQQKCAWITIQYPVISECKCSC
With B1, in assay [1] (10 ng/ml Noggin, wild-type cultures), the “reduction of cartilage nodule formation in comparison to untreated controls” value is recorded as about 84%. Also, the “number of cartilage nodules relative to control cultures” value in assay [1] (Noggin alone 10 ng/ml, FIG. 6d) is ~10 % of that of control cultures.
